Measured values: patent publication US20050158818A1, “Cephalosporin C acylases” (ANTIBIOTICOS S.p.A., priority 2004, published 2005)
Where a chain is given by its changes, count along the chain named. Names may count otherwise. Where two headings read alike, the source gives them in different places.

Legend:
[1] = target: HisVAC cephalosporin C acylase (Pseudomonas N176 derived, parent Seq. ID #1) variant A215Y; test: Product inhibition of mutant A215Y; assay type: biochemical
Method: (§1) Kinetics parameters of the mutants and HisVAC acylase were determined measuring the hydrolysis of cephalosporin C or glutaryl 7-ACA in 0.1 M phosphate buffer solution, pH 8.0 at 37° C. (then converted in units at 25° C.). The amount of 7-ACA is determined spectrophotometrically, using a standard curve, measuring the yellow intensity at 415 nm (Schiff base), resulting upon reaction with p-dimethylaminobenzaldehyde, using modified Bulasingham method (Biochem. Biophys. Acta 276, 250, 1972).

[2] = target: HisVAC cephalosporin C acylase (Pseudomonas N176 derived, parent Seq. ID #1) variant A215F; test: Product inhibition of mutant A215F; assay type: biochemical
Method: as §1

[3] = tested on: HisVAC cephalosporin C acylase, wild-type (designed on Pseudomonas N176 acylase, Phe270, C-terminal LEHHHHHH), Seq. ID #1; test: Hydrolysis kinetics of wild-type HisVAC acylase; assay type: biochemical; conditions: for Km: 0.1 M phosphate; for Km / Vmax: pH 8.0, 37° C.; for Vmax: converted in units at 25° C.; for Inhibition after: substrate concentration after which inhibition occurs
Method: Said sequence was introduced in order to make the subsequent chromatographic purification easier, using pET24 plasmid as the cloning and expression vector. This plasmid is resistant to kanamycin and is able to insert a “His-Tag sequence” at the C-terminus of the protein and a “T7-Tag sequence” at the N-terminus.
as §1
(§2) One acylase unit is the amount of enzyme (in solution or immobilized) which, under the assay conditions, produces one micromole of 7-ACA/minute.

[4] = tested on: HisVAC cephalosporin C acylase (Pseudomonas N176 derived, parent Seq. ID #1) variant A215V; test: Hydrolysis kinetics of mutant A215V; assay type: biochemical; conditions: for Km: 0.1 M phosphate; for Km / Vmax: pH 8.0, 37° C.; for Vmax: converted in units at 25° C.; for Inhibition after: substrate concentration after which inhibition occurs
Method: (§3) 1. Site-Directed Mutagenesis
as §1, §2

[5] = tested on: HisVAC cephalosporin C acylase (Pseudomonas N176 derived, parent Seq. ID #1) variant A215Y; test: Hydrolysis kinetics of mutant A215Y; assay type: biochemical; conditions: for Km: 0.1 M phosphate; for Km / Vmax: pH 8.0, 37° C.; for Vmax: converted in units at 25° C.; for Inhibition after: substrate concentration after which inhibition occurs
Method: as §3, §1, §2

[6] = tested on: HisVAC cephalosporin C acylase (Pseudomonas N176 derived, parent Seq. ID #1) variant A215F; test: Hydrolysis kinetics of mutant A215F; assay type: biochemical; conditions: for Km: 0.1 M phosphate; for Km / Vmax: pH 8.0, 37° C.; for Vmax: converted in units at 25° C.
Method: as §3, §1, §2

[7] = tested on: HisVAC cephalosporin C acylase (Pseudomonas N176 derived, parent Seq. ID #1) variant A215L; test: Hydrolysis kinetics of mutant A215L; assay type: biochemical; conditions: for Km: 0.1 M phosphate; for Km / Vmax: pH 8.0, 37° C.; for Vmax: converted in units at 25° C.; for Inhibition after: substrate concentration after which inhibition occurs
Method: as §3, §1, §2

[8] = tested on: HisVAC cephalosporin C acylase (Pseudomonas N176 derived, parent Seq. ID #1) variant A215E; test: Hydrolysis kinetics of mutant A215E; assay type: biochemical; conditions: for Km: 0.1 M phosphate; for Km / Vmax: pH 8.0, 37° C.; for Vmax: converted in units at 25° C.
Method: as §3, §1, §2

[9] = tested on: HisVAC cephalosporin C acylase (Pseudomonas N176 derived, parent Seq. ID #1) variant H296T; test: Hydrolysis kinetics of mutant H296T; assay type: biochemical; conditions: for Km: 0.1 M phosphate; for Km / Vmax: pH 8.0, 37° C.; for Vmax: converted in units at 25° C.; for Inhibition after: substrate concentration after which inhibition occurs
Method: as §3, §1, §2

[10] = tested on: HisVAC cephalosporin C acylase (Pseudomonas N176 derived, parent Seq. ID #1) variant H296N; test: Hydrolysis kinetics of mutant H296N; assay type: biochemical; conditions: for Km: 0.1 M phosphate; for Km / Vmax: pH 8.0, 37° C.; for Vmax: converted in units at 25° C.; for Inhibition after: substrate concentration after which inhibition occurs
Method: as §3, §1, §2

[11] = tested on: HisVAC cephalosporin C acylase (Pseudomonas N176 derived, parent Seq. ID #1) variant H296S; test: Hydrolysis kinetics of mutant H296S; assay type: biochemical; conditions: for Km: 0.1 M phosphate; for Km / Vmax: pH 8.0, 37° C.; for Vmax: converted in units at 25° C.; for Inhibition after: substrate concentration after which inhibition occurs
Method: as §3, §1, §2

[12] = Stability of the enzyme (pH, temperature); assay type: physicochemical; conditions: temperatures higher than 25° C.
Method: Purified HisVAC is stable after 120 min incubation at pH ranging from 5 to 9. Enzymatic activity increases as a function of the pH of the reaction solution, in the range 5-10, reaching the highest value at 40° C. after 30 minutes reaction.

[13] = Acylase kinetics, hydrolysis of cephalosporin C (7-ACA determined at 415 nm with p-dimethylaminobenzaldehyde); assay type: biochemical; conditions: substrate Cef C; for Km: 0.1 M phosphate buffer pH 8.0, 37° C.; for Vmax (U/mg): 0.1 M phosphate buffer pH 8.0, 37° C. (converted in units at 25° C.); for Inhibition after: substrate concentration after which inhibition is seen
Method: as §1, §2

[14] = Acylase kinetics, hydrolysis of glutaryl 7-ACA (7-ACA determined at 415 nm with p-dimethylaminobenzaldehyde); assay type: biochemical; conditions: substrate Gl-7-ACA; for Km: 0.1 M phosphate buffer pH 8.0, 37° C.; for Vmax (U/mg): 0.1 M phosphate buffer pH 8.0, 37° C. (converted in units at 25° C.); for Inhibition after: substrate concentration after which inhibition is seen
Method: as §1, §2

[15] = substrate concentration after which inhibition occurs
[16] = substrate Gl-7-ACA, read-out: Ki

N[C@H](CCCC(=O)O)C(=O)O [α-Aminoadipic]
Ki ([1]; substrate Cef C): no inhibition | Ki ([2]; substrate Cef C): 85.2 mM

CC(=O)OCC1=C(C(=O)O)N2C(=O)[C@@H](NC(=O)CCC[C@@H](N)C(=O)O)[C@H]2SC1 [Cef C, cephalosporin C]
Km [3]: 8.2 mM | Vmax [3]: 0.23 U/mg | Inhibition after [3]: 50 mM | Km [4]: 8.3 mM | Vmax [4]: 0.78 U/mg | Inhibition after [4]: 50 mM | Km [5]: 6.9 mM | Vmax [5]: 1.8 U/mg | Inhibition after [5]: 25 mM | Km [6]: 7.7 mM | Vmax [6]: 0.21 U/mg | Km [7]: 9.5 mM | Vmax [7]: 0.75 U/mg | Inhibition after [7]: 12.5 mM | Km [8]: 3.2 mM | Vmax [8]: 0.16 U/mg | Km [9]: 4.8 mM | Vmax [9]: 0.2 U/mg | Inhibition after [9]: 60 mM | Km [10]: 5.2 mM | Vmax [10]: 0.27 U/mg | Inhibition after [10]: 50 mM | Km [11]: 7.7 mM | Vmax [11]: 0.63 U/mg | Inhibition after [11]: 25 mM

CC(=O)OCC1=C(C(=O)O)N2C(=O)[C@@H](NC(=O)CCCC(=O)O)[C@H]2SC1 [Gl-7-ACA, glutaryl-7-ACA]
Km [3]: 1.6 mM | Vmax [3]: 24.2 U/mg | Inhibition after [3]: 12.5 mM | Km [4]: 1.2 mM | Vmax [4]: 12.5 U/mg | Inhibition after [4]: 12.5 mM | Km [5]: 1.7 mM | Vmax [5]: 16 U/mg | Inhibition after [5]: 12.5 mM | Km [6]: 0.85 mM | Vmax [6]: 3.3 U/mg | Inhibition after [6, 15]: 50 mM | Km [7]: 1.7 mM | Vmax [7]: 6.2 U/mg | Inhibition after [7]: 12.5 mM | Km [8]: 1 mM | Vmax [8]: 2 U/mg | Inhibition after [8, 15]: 25 mM | Km [9]: 2 mM | Vmax [9]: 0.67 U/mg | Inhibition after [9]: 50 mM | Km [10]: 2.8 mM | Vmax [10]: 4.3 U/mg | Inhibition after [10]: 50 mM | Km [11]: 0.7 mM | Vmax [11]: 2.0 U/mg | Inhibition after [11]: 25 mM

CC(=O)OCC1=C(C(=O)O)N2C(=O)[C@@H](N)[C@H]2SC1 [7-ACA, 7-amino-cephalosporanic acid]
Ki [1, 16]: 11.3 mM | Ki ([2]; substrate Gl-7-ACA): 4.7 mM

O=C(O)CCCC(=O)O [Glutaric Acid]
Ki [1, 16]: 6.1 mM | Ki ([2]; substrate Gl-7-ACA): 2.1 mM

B1: A215Y: HisVAC mutant, alanine 215 replaced with Tyr (protein)
chain: MTMAANTDRAVLQAALPPLSGSLPIPGLSASVRVRRDAWGIPHIKASGEADAYRALGFVHSQDRLFQMELTRRKALGRAAEWLGAEAAEADILVRRLGMEKVCRRDFEALGVEAKDMLRAYVAGVNAFLASGAPLPVEYGLLGAEPEPWEPWHSIAVMRRLGLLMGSVWFKLWRMLALPVVGAANALKLRYDDGGRDLLCIPPGAEADRLEADLYTLRPAVDALLKAMGGDASDAAGGGSNNWAVAPGRTATGRPILAGDPHRVFEIPGFYAQHHLACDRFDMIGLTVPGVPGFPHFAHNGKVAYCVTHAFMDIHDLYLEQFAGEGRTARFGNDFEPVAWSRDRIAVRGGADREFDIVETRHGPVIAGDPRDGAALTLRSVQFAETDLSFDCLTRMPGASTVAQLYDATRGWGLIDHNLVAGDVAGSIGHLVRARVPSRPRENGWLPVPGWSGEHEWRGWIPHEAMPRVIDPPGGIIVTANNRVVADDHPDYLCTDCHPPYRAERIMKRLVANPAFAVDDAAAIHADTLSPHVGLLRRRLEALGARDDSAAEGLRQMLVAWDGRMDAASEVASAYNAFRRALTRLVTDRSGLEQAISHPFAAVAPGVSPQGQVWWAVPTLLRDDDAGMLKGWSWDQALSEALSVASQNLTGRSWGEEHRPRFTHPLATQFPAWAGLLNPASRPIGGDGDTVLANGLVPSAGPQATYGALSRYVFDVGNWDNSRWVVFHGASGHPASAHYADQNAPWSDCAMVPMLYSWDRIAAEAVTSQELVPALEHHHHHH
Thermal stability [12]: more stable

B2: H296F: HisVAC mutant, histidine 296 replaced with Phe (protein)
chain: B1 chain with Y215A, H296F
Km [13]: 4.1 mM | Vmax (U/mg) [13]: 0.05 U/mg | Inhibition after [13]: 60 mM | Km [14]: 1.9 mM | Vmax (U/mg) [14]: 1.7 U/mg | Inhibition after [14]: 50 mM

B3: D416Y: HisVAC mutant, aspartic acid 416 replaced with Tyr (protein)
chain: B1 chain with Y215A, D416Y
Km [13]: 7.2 mM | Vmax (U/mg) [13]: 0.66 U/mg | Km [14]: 1.75 mM | Vmax (U/mg) [14]: 4.9 U/mg | Inhibition after [14]: 25 mM

B4: H417Y: HisVAC mutant, histidine 417 replaced with Tyr (protein)
chain: B1 chain with Y215A, H417Y
Km [13]: 12.3 mM | Vmax (U/mg) [13]: 0.05 U/mg | Inhibition after [13]: 50 mM | Km [14]: 4.3 mM | Vmax (U/mg) [14]: 14.8 U/mg

B5: A215Y-H296S: HisVAC double mutant, alanine 215 replaced with Tyr and histidine 296 replaced with Ser (protein)
chain: B1 chain with H296S
Km [13]: 10 mM | Vmax (U/mg) [13]: 0.66 U/mg | Inhibition after [13]: 40 mM | Km [14]: 4 mM | Vmax (U/mg) [14]: 2.2 U/mg | Inhibition after [14]: 25 mM

B6: D416Y-H417Y: HisVAC double mutant, aspartic acid 416 and histidine 417 replaced with Tyr (protein)
chain: B1 chain with Y215A, D416Y, H417Y
Km [13]: 13.1 mM | Vmax (U/mg) [13]: 4.2 U/mg | Inhibition after [13]: 50 mM | Km [14]: 9 mM | Vmax (U/mg) [14]: 1.2 U/mg | Inhibition after [14]: 12.5 mM
